Test results from patent US10370333B2 (Sanford Burnham Prebys Medical Discovery Institute, priority 2012, dated 2019).

Legend:
TNAP = TNAP (Homo sapiens (Human), UniProt P05186); test: TNAP (PPi) inhibition assay, pyrophosphate as substrate; type: biochemical
Outline: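 Enzyme source was conditioned serum-free medium from COS-1 cells transiently expressing tagged human TNAP, dialyzed against TBS with MgCl2/ZnCl2. Activity on natural substrate PPi at pH 7.4 read as liberated phosphate (Biomol Green).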

TNAP human plasma = TNAP human plasma (Homo sapiens, UniProt P05186); type: biochemical; details: substrate pNPP

SMILES | IC50 (TNAP) [nM] | IC50 (TNAP human plasma) [nM]
COc1ccc(OC)c(S(=O)(=O)Nc2cnc3ccc(C(=O)NC4CCCCC4)cc3c2)c1 [Example IX-16, 3-(2,5-Dimethoxy-benzenesulfonylamino)-quinoline-6-carboxylic Acid Cyclohexylamide] | < 100 | < 5000
CCCNC(=O)c1cncc(NS(=O)(=O)c2cc(OC(F)(F)F)ccc2OC)c1 [Example XII-21, 5-(2-Methoxy-5-(trifluoromethoxy)phenylsulfonamido)-N-propylnicotinamide] | > 1000 | 
COc1ccc(OC(F)(F)F)cc1S(=O)(=O)Nc1cncc(C(=O)NC2CCCCC2)c1 [Example XII-22, 5-(2-Methoxy-5-(trifluoromethoxy)phenylsulfonamido)-N-cyclohexylnicotinamide] | 100 to 1000 | 
COC(=O)c1cncc(N(C)S(=O)(=O)c2cc(OC)ccc2OC(F)(F)F)c1 [Example XII-23, 5-[(5-Methoxy-2-trifluoromethoxy-benzenesulfonyl)-methyl-amino]-nicotinic Acid Methyl Ester] | > 1000 | 
